Where two headings read alike, the source gives them in different places.
Experiments:
human D4.4 receptor = molecular target: T1, human D4.4 receptor (Homo sapiens, UniProt P21917); experiment: radioligand binding with [^3H]spiperone, D4.4
T1 construct: expressed in transfected cells; host or cells: Chinese hamster ovary (CHO) cells, membranes
T1 sequence (P21917 1-419): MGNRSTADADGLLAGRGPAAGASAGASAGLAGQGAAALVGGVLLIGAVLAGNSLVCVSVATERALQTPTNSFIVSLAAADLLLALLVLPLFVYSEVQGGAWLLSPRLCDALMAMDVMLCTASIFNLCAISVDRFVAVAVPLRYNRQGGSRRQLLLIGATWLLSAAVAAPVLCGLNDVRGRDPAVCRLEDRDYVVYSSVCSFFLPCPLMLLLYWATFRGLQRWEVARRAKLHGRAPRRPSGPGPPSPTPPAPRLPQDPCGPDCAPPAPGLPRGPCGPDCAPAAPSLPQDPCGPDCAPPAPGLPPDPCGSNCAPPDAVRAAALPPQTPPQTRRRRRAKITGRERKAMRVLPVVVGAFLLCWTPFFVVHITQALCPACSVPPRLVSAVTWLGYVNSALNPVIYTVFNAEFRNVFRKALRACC
Procedure: (§1) For the determination of binding affinity to the receptors of the dopamine D2 family membranes were established carrying the human D2long, D2short, D3 or D4.4 receptor subtype expressed in Chinese hamster ovary cell lines. In principle, the binding experiments started when incubating an appropriate amount of membrane with the radioligand [^3H]spiperone and the particular test compounds diluted in a wide range of different concentrations from subnanomolar up to micromolar.

human D3 receptor = molecular target: T2, human D3 receptor (Homo sapiens, UniProt P35462); experiment: radioligand binding with [^3H]spiperone, D3
T2 construct: expressed in transfected cells; host or cells: Chinese hamster ovary (CHO) cells, membranes
T2 sequence (P35462 whole entry): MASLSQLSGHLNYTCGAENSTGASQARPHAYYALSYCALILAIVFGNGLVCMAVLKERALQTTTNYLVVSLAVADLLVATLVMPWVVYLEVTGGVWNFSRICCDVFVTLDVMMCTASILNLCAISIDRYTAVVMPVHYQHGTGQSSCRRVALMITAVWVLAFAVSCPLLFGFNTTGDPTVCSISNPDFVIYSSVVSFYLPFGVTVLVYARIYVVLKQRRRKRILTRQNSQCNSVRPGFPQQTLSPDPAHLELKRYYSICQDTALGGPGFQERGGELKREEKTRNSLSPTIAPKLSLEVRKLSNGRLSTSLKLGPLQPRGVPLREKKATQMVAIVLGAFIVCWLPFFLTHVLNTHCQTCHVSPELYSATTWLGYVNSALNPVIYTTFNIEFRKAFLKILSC
Procedure: as §1

human D2long receptor = molecular target: T3, human D2long receptor (Homo sapiens, UniProt P14416); experiment: radioligand binding with [^3H]spiperone, D2long; conditions: read-out: Ki D2lo
T3 construct: expressed in transfected cells; host or cells: Chinese hamster ovary (CHO) cells, membranes
T3 sequence (P14416 whole entry): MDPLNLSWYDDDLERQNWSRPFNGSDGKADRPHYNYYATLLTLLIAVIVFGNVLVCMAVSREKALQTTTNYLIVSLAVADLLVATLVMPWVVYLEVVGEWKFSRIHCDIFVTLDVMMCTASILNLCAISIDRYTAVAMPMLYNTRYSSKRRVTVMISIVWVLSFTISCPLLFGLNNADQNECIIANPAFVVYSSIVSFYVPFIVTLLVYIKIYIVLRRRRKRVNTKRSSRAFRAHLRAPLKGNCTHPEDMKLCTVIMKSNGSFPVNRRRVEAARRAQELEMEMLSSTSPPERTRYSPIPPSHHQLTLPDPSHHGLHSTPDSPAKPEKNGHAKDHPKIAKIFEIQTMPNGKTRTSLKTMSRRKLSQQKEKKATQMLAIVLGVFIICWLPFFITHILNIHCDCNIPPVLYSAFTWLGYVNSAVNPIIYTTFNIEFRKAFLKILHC
Procedure: as §1

5-HT2 receptor = molecular target: T4, 5-HT2 receptor (Sus scrofa, UniProt P50129); experiment: radioligand binding, porcine cortical membranes, [^3H]ketanserin
T4 construct: membrane preparations from porcine cortical material; from tissue; host or cells: porcine cerebral cortex membranes
T4 sequence (P50129 whole entry): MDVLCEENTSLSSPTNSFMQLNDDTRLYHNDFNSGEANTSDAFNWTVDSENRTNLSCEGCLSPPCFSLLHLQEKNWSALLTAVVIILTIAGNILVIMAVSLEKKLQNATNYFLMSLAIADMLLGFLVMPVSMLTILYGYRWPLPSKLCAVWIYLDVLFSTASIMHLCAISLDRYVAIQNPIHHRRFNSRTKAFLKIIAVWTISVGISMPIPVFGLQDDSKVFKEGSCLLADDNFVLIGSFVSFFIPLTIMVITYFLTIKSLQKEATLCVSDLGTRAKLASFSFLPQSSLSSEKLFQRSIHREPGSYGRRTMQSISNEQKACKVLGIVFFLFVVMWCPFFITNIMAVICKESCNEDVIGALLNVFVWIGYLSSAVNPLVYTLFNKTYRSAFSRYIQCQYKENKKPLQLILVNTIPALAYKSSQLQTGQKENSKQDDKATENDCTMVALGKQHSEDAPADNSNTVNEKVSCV

[1] = molecular target: dopamine D2short receptor (Homo sapiens, UniProt P14416); experiment: [^35S]GTPγS-incorporation assay, intrinsic activity; conditions: read-out: D2short: [^35S]GTPγS intrinsic activity, % activity of quinpirol
Sequence of dopamine D2short receptor (P14416 1-414 isoform P14416-2): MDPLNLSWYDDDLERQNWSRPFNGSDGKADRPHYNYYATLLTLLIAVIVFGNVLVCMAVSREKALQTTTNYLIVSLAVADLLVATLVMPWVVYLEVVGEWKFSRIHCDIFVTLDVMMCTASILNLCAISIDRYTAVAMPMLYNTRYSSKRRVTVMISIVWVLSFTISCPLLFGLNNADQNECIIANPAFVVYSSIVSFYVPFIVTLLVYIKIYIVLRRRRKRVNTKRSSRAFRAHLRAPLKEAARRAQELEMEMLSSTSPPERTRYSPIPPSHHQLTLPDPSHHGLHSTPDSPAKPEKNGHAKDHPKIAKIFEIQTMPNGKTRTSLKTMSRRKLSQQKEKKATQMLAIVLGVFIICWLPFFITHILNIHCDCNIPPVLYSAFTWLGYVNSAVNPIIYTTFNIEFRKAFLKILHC

human D2short receptor = molecular target: T5, human D2short receptor (Homo sapiens, UniProt P14416); experiment: radioligand binding with [^3H]spiperone, D2short; conditions: read-out: Ki D2sh
T5 construct: expressed in transfected cells; host or cells: Chinese hamster ovary (CHO) cells, membranes
T5 sequence (P14416 1-414 isoform P14416-2): as above
Procedure: as §1

5-HT1A receptor = molecular target: T6, 5-HT1A receptor (Sus scrofa, UniProt A0A4X1UTF5); experiment: radioligand binding, porcine cortical membranes, [^3H]8-OH-DPAT and [^3H]WAY 100635
T6 construct: membrane preparations from porcine cortical material; from tissue; host or cells: porcine cerebral cortex membranes
T6 sequence (A0A4X1UTF5 1-422): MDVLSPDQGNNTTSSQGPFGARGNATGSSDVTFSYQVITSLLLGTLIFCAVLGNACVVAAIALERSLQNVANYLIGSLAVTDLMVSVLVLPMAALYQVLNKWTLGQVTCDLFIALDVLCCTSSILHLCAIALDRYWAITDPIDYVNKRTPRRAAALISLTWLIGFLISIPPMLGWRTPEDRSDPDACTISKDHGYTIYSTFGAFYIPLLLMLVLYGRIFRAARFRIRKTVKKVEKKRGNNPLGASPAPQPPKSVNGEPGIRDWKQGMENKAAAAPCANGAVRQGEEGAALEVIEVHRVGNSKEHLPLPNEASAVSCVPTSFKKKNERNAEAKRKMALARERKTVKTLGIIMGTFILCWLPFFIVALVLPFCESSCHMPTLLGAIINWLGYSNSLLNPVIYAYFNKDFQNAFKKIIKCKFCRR

[2] = [^3H]spiperone, CHO membranes, mean of 2 to 4 experiments
[3] = porcine cortical membranes, [^3H]ketanserin
[4] = ether alkylene linker compounds

Row | Structure (SMILES) | Ki (human D4.4 receptor; [2]) [µM] | Ki (human D3 receptor; [2]) [µM] | Ki (human D2long receptor; [2]) [µM] | melting point [°C] | Ki (5-HT2 receptor; [3]) [µM] | Emax [1] [%] | Ki (human D2short receptor; [2]) [µM] | Ki (5-HT1A receptor; porcine cortical membranes) [µM] | Ki (human D4.4 receptor; [4]) [µM] | Ki (human D3 receptor; [4]) [µM] | Ki (human D2long receptor; [4]) [µM] | Ki (5-HT2 receptor; [4]) [µM] | Ki (human D2short receptor; [4]) [µM] | Ki (5-HT1A receptor; [4]) [µM]
1 | COc1ccc(N2CCN(CCCCOc3ccn4ncc(C=O)c4c3)CC2)cc1 [Example E24, 5-[4-[4-(4-Methoxyphenyl)piperazin-1-yl]butoxy]pyrazolo[1,5-a]pyridine-3-carbaldehyde] | 0.301 to 3 | 0.301 to 3 | 0.03 to 0.3 | 114 | > 3 | < 15 | 0.03 to 0.3 | 0.03 to 0.3 | – | – | – | – | – | –
2 | Clc1ccccc1N1CCN(CCCCOc2ccc3ccnn3c2)CC1 [Example E53, 6-[4-[4-(2-Chlorophenyl)piperazin-1-yl]butoxy]pyrazolo[1,5-a]pyridine] | < 0.03 | < 0.03 | < 0.03 | 86 | 0.301 to 3 | < 15 | < 0.03 | < 0.03 | – | – | – | – | – | –
3 | Oc1ccc(N2CCN(CCCCOc3ccn4nccc4c3)CC2)cc1 [Example E20, 5-[4-[4-(4-Hydroxyphenyl)piperazin-1-yl]butoxy]pyrazolo[1,5-a]pyridine] | 0.301 to 3 | 0.03 to 0.3 | 0.03 to 0.3 | 124 | 0.301 to 3 | 15 to 40 | 0.03 to 0.3 | > 3 | – | – | – | – | – | –
4 | ON=Cc1cnn2ccc(OCCCCN3CCN(c4ccccc4Cl)CC3)cc12 [Example E32, (s-trans) 5-[4-[4-(2-Chlorophenyl)piperazin-1-yl]butoxy[pyrazolo[1,5-a]pyridine-3-carbaldehyde oxime] | < 0.03 | < 0.03 | < 0.03 | 174 | 0.03 to 0.3 | 15 to 40 | < 0.03 | < 0.03 | – | – | – | – | – | –
5 | Clc1ccccc1N1CCN(CCCCOc2ccn3nccc3c2)CC1 [Example E17, 5-[4-[4-(2-Chlorophenyl)piperazin-1-yl]butoxy]pyrazolo[1,5-a]pyridine] | 0.03 to 0.3 | < 0.03 | < 0.03 | 163 | 0.301 to 3 | 15 to 40 | < 0.03 | 0.03 to 0.3 | – | – | – | – | – | –
6 | O=Cc1cnn2ccc(OCCCCN3CCN(c4ccccc4Cl)CC3)cc12 [Example E23, 5-[4-[4-(2-Chlorophenyl)piperazin-1-yl]butoxy]pyrazolo[1,5-a]pyridine-3-carbaldehyde] | < 0.03 | < 0.03 | < 0.03 | 116 | 0.301 to 3 | 15 to 40 | < 0.03 | < 0.03 | – | – | – | – | – | –
7 | O=Cc1cnn2ccc(OCCCCN3CCN(c4ccc(O)cc4)CC3)cc12 [Example E26, 5-[4-[4-(4-Hydroxyphenyl)piperazin-1-yl]butoxy]pyrazolo[1,5-a]pyridine-3-carbaldehyde] | 0.03 to 0.3 | 0.03 to 0.3 | 0.03 to 0.3 | 164 | 0.301 to 3 | 40 to 75 | < 0.03 | 0.03 to 0.3 | – | – | – | – | – | –
8 | Clc1cccc(N2CCN(CCCCOc3cc4ccccn4n3)CC2)c1Cl [Example E1, 2-[4-[4-(2,3-Dichlorophenyl)piperazin-1-yl]butoxy]pyrazolo[1,5-a]pyridine] | 0.03 to 0.3 | < 0.03 | < 0.03 | 161 | 0.03 to 0.3 | < 15 | < 0.03 | < 0.03 | 0.033 | 0.0035 | 0.0094 | 0.15 | 0.01 | 0.017
9 | O=Cc1cnn2ccc(OCCCCN3CCN(c4ccc(Cl)cc4)CC3)cc12 [Example E25] | 0.03 to 0.3 | 0.03 to 0.3 | < 0.03 | 113 | 0.301 to 3 | 15 to 40 | < 0.03 | 0.03 to 0.3 | – | – | – | – | – | –

Source: patent US20100168125A1, “INDOLIZINES AND AZA-ANALOG DERIVATIVES THEREOF AS CNS ACTIVE COMPOUNDS” (priority 2007, published 2010)
